Data: the Kinase Knowledgebase extract (Sharma et al. 2016)

How the values were obtained:
[1] = target: MAPK14 (UniProt Q16539); assay: MAPK14 Binding Inhibition
[2] = target: MAPK14 (UniProt Q16539); assay: MAPK14 Kinase Inhibition

Sequence of MAPK14 (Q16539 whole entry, looked up): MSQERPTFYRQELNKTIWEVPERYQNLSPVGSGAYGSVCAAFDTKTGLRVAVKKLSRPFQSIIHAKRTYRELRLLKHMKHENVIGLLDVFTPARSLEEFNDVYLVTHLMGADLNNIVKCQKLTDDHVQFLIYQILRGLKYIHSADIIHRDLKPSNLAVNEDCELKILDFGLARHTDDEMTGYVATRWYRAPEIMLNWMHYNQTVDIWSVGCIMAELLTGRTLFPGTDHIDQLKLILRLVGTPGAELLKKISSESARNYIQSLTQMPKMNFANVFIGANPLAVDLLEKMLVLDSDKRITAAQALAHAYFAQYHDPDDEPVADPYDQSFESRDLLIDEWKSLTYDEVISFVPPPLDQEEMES

Compound | inhibition [1] [µM] | IC50 [2] [µM]
COc1cccc(Nc2nccc(-c3c(-c4ccc(F)cc4)ncn3C3CCNCC3)n2)c1 | – | < 50
O=C1CCC(n2cnc(-c3ccc(F)cc3)c2-c2ccnc(Nc3ccccc3)n2)CC1 | < 50 | –
CN1CCC(n2cnc(-c3ccc(F)cc3)c2-c2ccnc(NCc3cccc4c3OCO4)n2)CC1 | < 50 | –
Fc1ccc(-c2ncn(C3CCNCC3)c2-c2ccnc(Nc3ccccc3)c2)cc1 | < 50 | –
COc1ccccc1Nc1nccc(-c2c(-c3ccc(F)cc3)ncn2C2CCNCC2)n1 | – | < 50
COc1ccc(Nc2nccc(-c3c(-c4ccc(F)cc4)ncn3C3CCNCC3)n2)cc1 | – | < 50
Oc1ccc(Nc2nccc(-c3c(-c4ccc(F)cc4)ncn3C3CCNCC3)n2)cc1 | – | < 50
CCOC(=O)N1CCC(Nc2nccc(-c3c(-c4ccc(F)cc4)ncn3C3CCN(C)CC3)n2)CC1 | < 50 | –
CN1CCC(n2cnc(-c3ccc(F)cc3)c2-c2ccnc(NCc3cccc(Cl)c3)n2)CC1 | < 50 | –
Fc1ccc(-c2ncn(C3CCNCC3)c2-c2ccnc(Nc3cccc(C(F)(F)F)c3)n2)cc1 | – | < 50
CN1CCC(n2cnc(-c3ccc(F)cc3)c2-c2ccnc(NC3CCN(Cc4ccccc4)CC3)n2)CC1 | < 50 | –
Fc1ccc(-c2ncn(C3CCNCC3)c2-c2ccnc(Nc3cccc(Br)c3)n2)cc1 | < 50 | –
CN1CCC(n2cnc(-c3ccc(F)cc3)c2-c2ccnc(NC3CC(C)(C)NC(C)(C)C3)n2)CC1 | < 50 | –
NCCNc1nccc(-c2c(-c3ccc(F)cc3)ncn2C2CCNCC2)n1 | < 50 | –
Fc1ccc(-c2ncn(C3CCNCC3)c2-c2ccnc(Nc3ccccc3)n2)cc1 | < 50 | –
Fc1ccc(-c2ncn(C3CCNCC3)c2-c2ccnc(NCCCn3ccnc3)n2)cc1 | < 50 | –

The next lines start with the values.

inhibition [1] [µM] | IC50 [2] [µM] | Compound
< 50 | – | CN1CCC(n2cnc(-c3ccc(F)cc3)c2-c2ccnc(NCCc3c[nH]c4ccc(Cl)cc34)n2)CC1
< 50 | – | CCOCCCNc1nccc(-c2c(-c3ccc(F)cc3)ncn2C2CCNCC2)n1
< 50 | – | CN1CCC(n2cnc(-c3ccc(F)cc3)c2-c2ccnc(NCCO)n2)CC1
< 50 | – | CC1(C)CC(n2cnc(-c3ccc(F)cc3)c2-c2ccnc(NCCO)n2)CC(C)(C)N1
– | < 50 | Oc1cccc(Nc2nccc(-c3c(-c4ccc(F)cc4)ncn3C3CCNCC3)n2)c1
< 50 | – | CN1CCC(n2cnc(-c3ccc(F)cc3)c2-c2ccnc(NCc3cccc4ccccc34)n2)CC1
< 50 | – | O[C@H]1CC[C@H](n2cnc(-c3ccc(F)cc3)c2-c2ccnc(Nc3ccccc3)n2)CC1
< 50 | – | CN1CCC(n2cnc(-c3ccc(F)cc3)c2-c2ccnc(NCCCN3CCOCC3)n2)CC1
– | < 50 | Fc1ccc(-c2ncn(C3CCNCC3)c2-c2ccnc(Nc3ccccc3F)n2)cc1
< 50 | – | CN1CCC(n2cnc(-c3ccc(F)cc3)c2-c2ccnc(NCc3ccccc3)n2)CC1
– | < 50 | CSc1ccc(-c2ncn(C3CCNCC3)c2-c2ccnc(Nc3ccccc3)n2)cc1
< 50 | – | CN1CCC(n2cnc(-c3ccc(F)cc3)c2-c2ccnc(Nc3ccccc3)n2)CC1
– | < 50 | CCOC(=O)N1CCC(n2cnc(-c3ccc(F)cc3)c2-c2ccnc(Nc3ccc(OCc4ccccc4)cc3)n2)CC1
< 50 | – | CC1(C)CC(n2cnc(-c3ccc(F)cc3)c2-c2ccnc(Nc3ccccc3)n2)CC(C)(C)N1
– | < 50 | Fc1ccc(-c2ncn(C3CCNCC3)c2-c2ccnc(Nc3cccc(F)c3)n2)cc1
– | < 50 | Fc1ccc(Nc2nccc(-c3c(-c4ccc(F)cc4)ncn3C3CCNCC3)n2)cc1
< 50 | – | CN1CCC(n2cnc(-c3ccc(F)cc3)c2-c2ccnc(NC3CCSCC3)n2)CC1
– | < 50 | CCOC(=O)N1CCC(n2cnc(-c3ccc(F)cc3)c2-c2ccnc(Nc3cccc(OCc4ccccc4)c3)n2)CC1
< 50 | – | CN1CCC(n2cnc(-c3ccc(F)cc3)c2-c2ccnc(NC3CCNCC3)n2)CC1
– | < 50 | Fc1ccc(-c2ncn(C3CCNCC3)c2-c2ccnc(Nc3ccc(F)c(F)c3)n2)cc1
– | < 50 | C[S+]([O-])c1ccc(-c2ncn(C3CCNCC3)c2-c2ccnc(Nc3ccccc3)n2)cc1 (configuration not stated)
